Laboratory results taken from ChEMBL document CHEMBL3792380, “A sub-milligram-synthesis protocol for in vitro screening of HDAC11 inhibitors” (Bioorg Med Chem Lett, 2016).

Molecular target: T1, Histone deacetylase 11 (Homo sapiens, UniProt Q96DB2)
T1 sequence (Q96DB2 whole entry): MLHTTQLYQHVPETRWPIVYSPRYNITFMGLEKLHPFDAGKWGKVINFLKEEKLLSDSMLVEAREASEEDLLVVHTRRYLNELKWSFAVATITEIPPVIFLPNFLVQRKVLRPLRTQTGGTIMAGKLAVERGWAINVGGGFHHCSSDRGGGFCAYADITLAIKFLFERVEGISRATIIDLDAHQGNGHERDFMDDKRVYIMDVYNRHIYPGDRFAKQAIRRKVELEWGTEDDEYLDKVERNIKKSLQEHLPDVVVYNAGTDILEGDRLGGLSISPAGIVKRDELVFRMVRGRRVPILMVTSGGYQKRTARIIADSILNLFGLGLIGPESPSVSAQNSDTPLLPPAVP
Test: Inhibition of His-tagged human HDAC11 expressed in Sf9 cells using Ac-Arg-Gly-Lys(Ac)-AMC as substrate by fluorometric assay

IC50: 1.2 µM
Compound: O=C(/C=C/c1cn([C@H]2C[C@@H](CO)N(Cc3ccccc3)C2)nn1)NO
